# Results from PubChem BioAssay (NCI).
# “And” between values parts separate entries of the source, which are not always exact repeats. Identical values can stand only once.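 Each compound was tested at five concentrations against cells in 96-well plates for 48 hours. GI50 is the concentration that inhibits growth by half. At the TGI there is no net growth.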
# Key:
# Assay in all cases: DTP human tumour cell line panel, 48 h
# UACC-257 melanoma = tested on: UACC-257 melanoma
# SF-539 CNS = tested on: SF-539 CNS
# HCC-2998 colon = tested on: HCC-2998 colon
# MCF7 breast = tested on: MCF7 breast
# MOLT-4 leukemia = tested on: MOLT-4 leukemia
# HOP-62 NSCLC = tested on: HOP-62 NSCLC
# OVCAR-5 ovarian = tested on: OVCAR-5 ovarian
# UACC-62 melanoma = tested on: UACC-62 melanoma
# M14 melanoma = tested on: M14 melanoma
# ACHN renal = tested on: ACHN renal
SMILES,GI50 (UACC-257 melanoma),TGI (UACC-257 melanoma),TGI (SF-539 CNS),TGI (HCC-2998 colon),TGI (MCF7 breast),GI50 (MOLT-4 leukemia),TGI (MOLT-4 leukemia),GI50 (HOP-62 NSCLC),TGI (HOP-62 NSCLC),GI50 (OVCAR-5 ovarian),TGI (OVCAR-5 ovarian),TGI (UACC-62 melanoma),TGI (M14 melanoma),GI50 (ACHN renal),TGI (ACHN renal),GI50 (SF-539 CNS),GI50 (HCC-2998 colon),GI50 (MCF7 breast),GI50 (UACC-62 melanoma),GI50 (M14 melanoma)
CC1(C)CC(=O)c2c(ccc(C(=O)C[C@H](N)CO)c2N)O1,20.3 µM,> 33.3 µM,17.5 µM and 7.43 µM,17.5 µM and 12 µM,17.5 µM and > 33.3 µM,1610 nM and 177 nM,17.5 µM and 26.7 µM,2390 nM,17.5 µM and > 33.3 µM,> 33.3 µM,> 33.3 µM,10.5 µM and 10.6 µM,17.5 µM and 11.3 µM,4.49 µM and 0.962 µM,17.5 µM and > 33.3 µM,–,–,–,–,–
CN1CCN(Cc2ccc(NC(=O)c3nc4ccc5[nH]ncc5c4c4c3CCC4)cc2C(F)(F)F)CC1,0.99 µM,2.01 µM,1.58 µM,1.65 µM,1.82 µM,1100 nM,2.58 µM,867 nM,1.71 µM,0.994 µM,2.41 µM,6.94 µM,1.76 µM,0.861 µM,1.55 µM,879 nM,830 nM,906 nM,1880 nM,934 nM
C#C[C@@]1(O)[C@@H](CO)O[C@@H](n2ccc3c(N)ncnc32)[C@@H]1O,2.31 µM,7.06 µM,4.44 µM,3.12 µM,5.67 µM,614 nM,> 100 µM,2050 nM,7.91 µM,3.1 µM,8.54 µM,4.48 µM,3 µM,0.56 µM,4.48 µM,1900 nM,1450 nM,239 nM,1790 nM,1420 nM
CC1(C)N=C(N)N=C(N)N1c1cccc(CCCCc2ccccc2)c1,0.78 µM,12.1 µM,7.39 µM,3.82 µM,10.2 µM,319 nM,8.76 µM,556 nM,22.2 µM,11.1 µM,25.9 µM,10.9 µM,18.6 µM,3.22 µM,19.7 µM,212 nM,195 nM,312 nM,186 nM,657 nM
CN(C)C(=O)c1cc2cnc(Nc3ccc(-c4csc5c(=O)cc(N6CCNCC6)oc45)cc3)nc2n1C1CCCC1,5.28 µM,22.9 µM,2.43 µM,2.03 µM,1.57 µM,368 nM,2.11 µM,1030 nM,10.6 µM,0.491 µM,5.11 µM,8.69 µM,2.59 µM,1.78 µM,5.51 µM,1150 nM,551 nM,294 nM,1440 nM,990 nM
O=C(O)c1ccc(NCc2nc3cc4ccccc4cc3[nH]2)cc1,–,25.9 µM,> 100 µM,> 100 µM,46.9 µM,–,> 100 µM,–,> 100 µM,–,> 100 µM,> 100 µM,> 100 µM,–,> 100 µM,–,–,–,–,–
N#CSCc1c(Cl)cccc1Cl,10.9 µM,> 81.3 µM,> 35.5 µM,45.2 µM,> 100 µM,–,–,36600 nM,> 100 µM,7.41 µM,> 100 µM,> 67.4 µM,> 100 µM,5.14 µM,> 100 µM,3450 nM,4190 nM,3270 nM,5180 nM,3050 nM
N#Cc1cccc(/C=C(/C(=O)c2ccccc2)c2ccccc2)c1,4.05 µM,18.2 µM,18.4 µM,9.35 µM,15.9 µM,3190 nM,23.4 µM,3990 nM,13.5 µM,11.9 µM,29.1 µM,24.6 µM,20.8 µM,2.47 µM,5.76 µM,5550 nM,3150 nM,3850 nM,4100 nM,4050 nM
C/C(=N\NC(=O)c1ccccc1O)c1cccc(/C(C)=N/NC(=O)c2ccccc2O)n1,16.5 µM and > 100 µM,> 100 µM,23.3 µM and > 100 µM,11.5 µM and > 58.9 µM,> 100 µM,424 nM,17.5 µM and > 100 µM,467 nM,31.7 µM and 6.42 µM,10.8 µM and > 95.7 µM,49.5 µM and > 100 µM,20.6 µM and > 100 µM,> 100 µM,0.668 µM,50.5 µM and > 62.9 µM,5960 nM and 918 nM,489 nM,7800 nM,614 nM,–
Cc1ccc(N=Nc2c(N)nn(-c3ccccc3)c2N)cc1,42.9 µM,> 100 µM,> 22.8 µM,> 100 µM,> 100 µM,1070 nM,> 100 µM,2490 nM,–,–,–,> 100 µM,> 100 µM,11.6 µM,> 100 µM,1780 nM,912 nM,670 nM,874 nM,1040 nM
C[C@]12CCC3c4ccc(O)cc4CCC3C1Cc1ccc(O)cc12 (some centres not stated),14.4 µM,28.5 µM,20.8 µM,18.4 µM,17.8 µM,–,0.478 µM,–,–,14.5 µM,27.6 µM,17.1 µM,13.6 µM,10.4 µM,22.3 µM,6080 nM,5440 nM,4830 nM,5250 nM,3800 nM
CC[C@H](C)[C@H](NC(=O)Nc1ccccc1)C(=O)N(C)[C@H](C[C@@H](OC(C)=O)c1nc(C(=O)N[C@@H](Cc2ccccc2)C[C@H](C)C(=O)OC)cs1)C(C)C,> 100 µM,> 100 µM,6.85 µM,> 100 µM,> 100 µM,–,–,3660 nM,> 100 µM,11.9 µM,> 100 µM,> 100 µM,5.84 µM,8.09 µM,> 100 µM,2370 nM,3480 nM,1270 nM,1270 nM,2190 nM
O=C(OCC1OC(OC(=O)c2cc(O)c(O)c(OC(=O)c3cc(O)c(O)c(O)c3)c2)C(OC(=O)c2cc(O)c(O)c(OC(=O)c3cc(O)c(O)c(O)c3)c2)C(OC(=O)c2cc(O)c(O)c(OC(=O)c3cc(O)c(O)c(O)c3)c2)C1OC(=O)c1cc(O)c(O)c(OC(=O)c2cc(O)c(O)c(O)c2)c1)c1cc(O)c(O)c(OC(=O)c2cc(O)c(O)c(O)c2)c1 (configuration not stated),20.9 µM,> 50 µM,35.1 µM,46 µM,34.7 µM,41300 nM,> 50 µM,> 50000 nM,> 50 µM,–,–,> 50 µM,> 50 µM,12.3 µM,32.8 µM,11700 nM,11200 nM,13200 nM,14300 nM,25300 nM
